Assay results reported in ChEMBL document CHEMBL1201862, “PubChem BioAssay data set” (2004).
Calls of active or inactive are those of the source.

Key:
[1] = biological target: Glyceraldehyde-3-phosphate dehydrogenase (Homo sapiens, UniProt P04406)
[2] = biological target: T1, Bcl-2-related protein A1 (Mus musculus, UniProt Q07440); test: Bfl-1 inhibitors blocking BH3 peptide binding, confirmation, biochemical, TR-FRET, mouse Bfl-1 (AID 621);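 note: TR-FRET binding of GST-Bfl-1 to FITC-labelled Bid peptide via terbium antibody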
T1 sequence (Q07440 whole entry): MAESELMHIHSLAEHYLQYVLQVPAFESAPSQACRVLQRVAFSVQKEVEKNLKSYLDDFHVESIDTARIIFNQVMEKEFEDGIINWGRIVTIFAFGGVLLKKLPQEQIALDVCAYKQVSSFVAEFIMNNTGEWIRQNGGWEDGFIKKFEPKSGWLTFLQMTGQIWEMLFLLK

[3] = biological target: T1, Bcl-2-related protein A1; test: Bfl-1 binding inhibitors, SAR follow-up, biochemical, fluorescence polarization (AID 1070)
[4] = biological target: T2, Replicative DNA helicase DnaB (Mycobacterium tuberculosis, UniProt P9WMR3); test: DnaB intein splicing inhibitors, dose response, biochemical, cell-free fluorescence (AID 449749); type: functional
T2 sequence (P9WMR3 whole entry): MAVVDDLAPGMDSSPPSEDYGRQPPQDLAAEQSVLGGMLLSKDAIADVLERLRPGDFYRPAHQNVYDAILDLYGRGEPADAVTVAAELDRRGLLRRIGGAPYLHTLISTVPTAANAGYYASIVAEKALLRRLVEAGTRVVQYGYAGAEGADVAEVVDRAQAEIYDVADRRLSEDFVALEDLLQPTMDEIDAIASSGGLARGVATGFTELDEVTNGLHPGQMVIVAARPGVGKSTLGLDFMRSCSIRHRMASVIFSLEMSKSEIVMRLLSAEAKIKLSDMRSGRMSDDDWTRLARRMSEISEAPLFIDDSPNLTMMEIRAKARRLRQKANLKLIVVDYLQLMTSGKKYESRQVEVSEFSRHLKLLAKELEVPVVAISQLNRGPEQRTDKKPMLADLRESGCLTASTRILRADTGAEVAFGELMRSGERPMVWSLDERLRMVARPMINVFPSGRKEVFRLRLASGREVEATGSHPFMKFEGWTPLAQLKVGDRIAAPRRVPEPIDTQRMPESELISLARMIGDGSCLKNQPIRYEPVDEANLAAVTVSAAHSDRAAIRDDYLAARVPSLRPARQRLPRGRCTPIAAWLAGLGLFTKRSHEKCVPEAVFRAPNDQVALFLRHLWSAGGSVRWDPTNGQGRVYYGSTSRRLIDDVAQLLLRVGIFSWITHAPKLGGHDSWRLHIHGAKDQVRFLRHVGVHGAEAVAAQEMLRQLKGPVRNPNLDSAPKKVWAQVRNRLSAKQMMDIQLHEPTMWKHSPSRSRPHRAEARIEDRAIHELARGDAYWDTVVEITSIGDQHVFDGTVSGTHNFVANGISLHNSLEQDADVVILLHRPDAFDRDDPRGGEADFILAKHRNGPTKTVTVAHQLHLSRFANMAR

[5] = biological target: T3, Protein RecA (Mycobacterium tuberculosis, UniProt P9WHJ3); test: Fluorescence Cell-Free Homogeneous Dose Retest to Identify Inhibitors of RecA-Intein Splicing Activity. [Related pubchem assays (depositor defined):AID2097, AID2223, AID489010, AID492950]; type: functional
T3 sequence (P9WHJ3 whole entry): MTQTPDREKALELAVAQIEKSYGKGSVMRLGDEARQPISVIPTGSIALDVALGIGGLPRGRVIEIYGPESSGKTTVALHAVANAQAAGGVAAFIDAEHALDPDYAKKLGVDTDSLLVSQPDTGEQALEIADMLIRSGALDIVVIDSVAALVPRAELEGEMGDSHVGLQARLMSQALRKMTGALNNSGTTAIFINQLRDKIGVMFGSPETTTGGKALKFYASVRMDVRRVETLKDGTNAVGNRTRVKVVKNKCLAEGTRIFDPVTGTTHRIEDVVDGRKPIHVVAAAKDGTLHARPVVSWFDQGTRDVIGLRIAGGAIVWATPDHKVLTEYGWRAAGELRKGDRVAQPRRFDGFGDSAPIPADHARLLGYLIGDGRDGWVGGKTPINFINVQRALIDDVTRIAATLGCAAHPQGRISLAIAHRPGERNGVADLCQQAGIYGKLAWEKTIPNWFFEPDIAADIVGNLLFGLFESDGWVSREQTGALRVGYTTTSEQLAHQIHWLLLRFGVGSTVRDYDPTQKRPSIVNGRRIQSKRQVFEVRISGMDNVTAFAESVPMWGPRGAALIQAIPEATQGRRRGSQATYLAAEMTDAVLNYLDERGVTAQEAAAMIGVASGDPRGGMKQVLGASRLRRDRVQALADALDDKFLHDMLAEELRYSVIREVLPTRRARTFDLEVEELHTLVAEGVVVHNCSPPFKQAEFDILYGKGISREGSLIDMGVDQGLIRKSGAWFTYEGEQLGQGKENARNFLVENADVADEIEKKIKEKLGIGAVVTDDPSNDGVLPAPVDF

[6] = growth suppression of beta-catenin-knockout colon cells, dose response, cell-based, HCT116, human colon tumor (AID 1045); type: functional;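 note: HCT116 colon tumor cells with beta catenin knocked out; cells exposed to compound for 60 hours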
[7] = Intein inhibitors as potential Tuberculosis drugs, a cytotoxicity screen. [Related pubchem assays (depositor defined):AID2221, AID2223, AID434968, AID435010, AID449749, AID449750, AID489010]; type: functional
[8] = system: BJ; test: cytotoxicity toward Ras-transformed BJeLR fibroblasts, dose response, cell-based, alamar blue fluorescence, cherrypicked samples (AID 2631); type: functional; details: Homo sapiens;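 note: confirmatory dose-response assay in RAS-dependent BJ fibroblasts engineered with TERT, LT and ST, with cytotoxicity read by fluorescence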
[9] = growth suppression of PTEN-null colon cells, dose response, cell-based, HCT116 PTEN knockout (AID 1047); type: functional;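 note: HCT116 colon tumor cells with PTEN knocked out; cells exposed to compound for 60 hours before readout; potency for loss of cell viability measured by luminescence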
[10] = Luminescent dose response cell-based high throughput screening assay for inhibitors of the Janus kinase 2 mutant JAK2V617F. [Related pubchem assays: 1446 (Primary screen.), 1521 (Confirmation assay.), 1486 (Counter screen.)]; type: functional
[11] = system: Vero; test: cells; type: functional; details: Chlorocebus sabaeus
[12] = inhibitors of Bluetongue virus cytopathic effect, confirmation, arbovirus, BSR cells (AID 1250); type: functional;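 note: protection from viral cytopathic effect measured as cell viability by ATP luminescence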
[13] = system: Vero; test: cells; type: functional, cell-based; details: Chlorocebus sabaeus
[14] = biological target: T4, NADPH oxidase 1 (Homo sapiens, UniProt Q9Y5S8); test: Luminescence-based cell-based dose response assay to identify inhibitors of NADPH oxidase 1 (NOX1).; type: functional
T4 sequence (Q9Y5S8 whole entry): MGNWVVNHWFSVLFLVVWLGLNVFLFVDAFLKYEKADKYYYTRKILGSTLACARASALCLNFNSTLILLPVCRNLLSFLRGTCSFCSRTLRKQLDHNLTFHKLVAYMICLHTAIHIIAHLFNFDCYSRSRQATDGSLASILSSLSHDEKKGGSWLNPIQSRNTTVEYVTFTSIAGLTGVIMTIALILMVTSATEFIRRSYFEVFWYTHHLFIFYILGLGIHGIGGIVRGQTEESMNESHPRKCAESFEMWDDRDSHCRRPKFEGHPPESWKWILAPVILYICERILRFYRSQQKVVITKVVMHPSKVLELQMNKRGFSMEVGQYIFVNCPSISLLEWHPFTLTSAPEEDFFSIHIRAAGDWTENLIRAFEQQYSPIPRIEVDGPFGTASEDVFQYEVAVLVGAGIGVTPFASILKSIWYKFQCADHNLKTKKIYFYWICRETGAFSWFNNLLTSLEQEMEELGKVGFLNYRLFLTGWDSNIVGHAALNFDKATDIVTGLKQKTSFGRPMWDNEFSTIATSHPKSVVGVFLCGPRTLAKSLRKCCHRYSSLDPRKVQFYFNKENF

[15] = system: BJ; test: cytotoxicity toward BJ-TERT-LT-ST fibroblasts, dose response, cell-based, RAS-independent, luminescence (AID 1935); type: functional; details: Homo sapiens;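 note: BJ fibroblasts immortalized with TERT plus LT and ST oncogenes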
[16] = system: BJ; test: cytotoxicity toward BJ-TERT fibroblasts, dose response, cell-based, RAS-independent, luminescence (AID 1933); type: functional; details: Homo sapiens
[17] = cytotoxicity toward DRD oncogenic fibroblasts, dose response, cell-based, non-viral oncogenic, luminescence (AID 1934); type: functional; details: Homo sapiens
[18] = Luminescence-based dose response cell-based high throughput screening assay for cytotoxic compounds using the IEC-6 intestinal epithelial cell line. [Related pubchem assays: 1858 (Summary AID.), 1825 (Counterscreen.), 1907 (Confirmation screen.)]; type: functional
[19] = system: BJ; test: cells; type: functional, cell-based; details: Homo sapiens
[20] = cytotoxicity in HEK-293T cells, dose response, cytotoxicity control for TCR NF-kB inhibitor project, luminescence, T-cell screen hits (AID 489026); type: functional, cell-based;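 note: cells exposed to compound about 14 hours before the viability readout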
[21] = biological target: Peroxisome proliferator-activated receptor gamma/Nuclear receptor coactivator 2 (Homo sapiens, UniProt P37231); type: functional;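 note: agonist potency for raising coactivator recruitment to the receptor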
[22] = biological target: Peroxisome proliferator-activated receptor gamma/Nuclear receptor coactivator 3 (Homo sapiens, UniProt P37231); type: functional;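 note: agonist potency for raising coactivator recruitment to the receptor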
Chain of Peroxisome proliferator-activated receptor gamma/Nuclear receptor coactivator 3 (P37231 whole entry): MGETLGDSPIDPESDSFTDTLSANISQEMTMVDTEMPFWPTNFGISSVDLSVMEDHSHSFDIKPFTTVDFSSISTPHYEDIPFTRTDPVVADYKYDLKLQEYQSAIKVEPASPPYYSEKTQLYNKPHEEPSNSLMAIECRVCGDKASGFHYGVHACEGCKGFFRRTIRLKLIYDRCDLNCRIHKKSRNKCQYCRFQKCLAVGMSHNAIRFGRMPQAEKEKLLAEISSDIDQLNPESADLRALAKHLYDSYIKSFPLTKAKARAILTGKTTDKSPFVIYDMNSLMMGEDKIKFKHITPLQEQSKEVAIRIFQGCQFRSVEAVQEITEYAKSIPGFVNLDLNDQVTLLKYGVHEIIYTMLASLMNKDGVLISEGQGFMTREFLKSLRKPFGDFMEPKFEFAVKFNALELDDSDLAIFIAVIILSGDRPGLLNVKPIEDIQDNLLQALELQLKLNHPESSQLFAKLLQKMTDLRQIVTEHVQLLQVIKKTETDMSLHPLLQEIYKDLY
Chain of Peroxisome proliferator-activated receptor gamma/Nuclear receptor coactivator 3 (Q9Y6Q9 whole entry, further chain): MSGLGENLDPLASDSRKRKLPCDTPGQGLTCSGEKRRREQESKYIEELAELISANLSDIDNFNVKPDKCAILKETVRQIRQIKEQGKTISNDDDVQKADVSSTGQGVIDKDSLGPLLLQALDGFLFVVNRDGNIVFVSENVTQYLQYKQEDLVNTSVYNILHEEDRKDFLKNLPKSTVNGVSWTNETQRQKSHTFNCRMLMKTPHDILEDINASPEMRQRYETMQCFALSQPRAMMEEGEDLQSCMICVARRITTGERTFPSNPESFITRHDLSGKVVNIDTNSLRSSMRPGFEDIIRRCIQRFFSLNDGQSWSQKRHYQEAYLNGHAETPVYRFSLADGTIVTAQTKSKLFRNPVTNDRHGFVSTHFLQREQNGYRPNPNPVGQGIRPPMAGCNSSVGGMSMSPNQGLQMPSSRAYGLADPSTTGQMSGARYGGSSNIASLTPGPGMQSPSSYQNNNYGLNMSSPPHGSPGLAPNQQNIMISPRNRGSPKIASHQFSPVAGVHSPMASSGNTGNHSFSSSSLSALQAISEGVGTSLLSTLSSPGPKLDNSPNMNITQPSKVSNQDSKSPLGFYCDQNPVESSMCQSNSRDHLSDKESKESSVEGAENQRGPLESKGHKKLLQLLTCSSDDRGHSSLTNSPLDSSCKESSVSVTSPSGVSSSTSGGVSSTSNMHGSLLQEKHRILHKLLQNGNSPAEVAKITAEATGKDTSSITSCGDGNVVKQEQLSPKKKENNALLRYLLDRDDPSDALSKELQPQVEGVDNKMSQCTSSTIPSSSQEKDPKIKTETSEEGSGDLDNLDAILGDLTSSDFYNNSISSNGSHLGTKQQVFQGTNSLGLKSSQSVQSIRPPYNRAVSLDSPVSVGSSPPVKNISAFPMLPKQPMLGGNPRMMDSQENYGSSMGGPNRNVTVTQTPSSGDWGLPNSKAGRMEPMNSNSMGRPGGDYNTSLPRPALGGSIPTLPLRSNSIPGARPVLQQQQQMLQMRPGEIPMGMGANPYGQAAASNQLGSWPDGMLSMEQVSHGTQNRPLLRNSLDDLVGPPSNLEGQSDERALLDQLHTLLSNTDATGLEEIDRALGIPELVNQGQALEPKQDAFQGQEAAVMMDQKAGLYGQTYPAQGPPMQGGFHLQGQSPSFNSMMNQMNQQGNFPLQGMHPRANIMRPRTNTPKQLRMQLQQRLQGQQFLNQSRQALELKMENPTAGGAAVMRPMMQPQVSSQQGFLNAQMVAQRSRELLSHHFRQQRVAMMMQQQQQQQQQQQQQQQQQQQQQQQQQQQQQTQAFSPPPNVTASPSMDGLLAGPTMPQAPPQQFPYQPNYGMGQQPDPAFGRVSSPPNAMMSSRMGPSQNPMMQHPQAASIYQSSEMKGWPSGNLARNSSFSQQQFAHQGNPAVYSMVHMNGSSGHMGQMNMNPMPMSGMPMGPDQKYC

[23] = biological target: Peroxisome proliferator-activated receptor gamma/Nuclear receptor coactivator 1 (Homo sapiens, UniProt P37231); type: functional;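 note: agonist potency as compounds enhance coactivator SRC-1 recruitment to PPARgamma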
Chain of Peroxisome proliferator-activated receptor gamma/Nuclear receptor coactivator 1 (P37231 whole entry): as the sequence (P37231 whole entry) above
Chain of Peroxisome proliferator-activated receptor gamma/Nuclear receptor coactivator 1 (Q15788 whole entry, further chain): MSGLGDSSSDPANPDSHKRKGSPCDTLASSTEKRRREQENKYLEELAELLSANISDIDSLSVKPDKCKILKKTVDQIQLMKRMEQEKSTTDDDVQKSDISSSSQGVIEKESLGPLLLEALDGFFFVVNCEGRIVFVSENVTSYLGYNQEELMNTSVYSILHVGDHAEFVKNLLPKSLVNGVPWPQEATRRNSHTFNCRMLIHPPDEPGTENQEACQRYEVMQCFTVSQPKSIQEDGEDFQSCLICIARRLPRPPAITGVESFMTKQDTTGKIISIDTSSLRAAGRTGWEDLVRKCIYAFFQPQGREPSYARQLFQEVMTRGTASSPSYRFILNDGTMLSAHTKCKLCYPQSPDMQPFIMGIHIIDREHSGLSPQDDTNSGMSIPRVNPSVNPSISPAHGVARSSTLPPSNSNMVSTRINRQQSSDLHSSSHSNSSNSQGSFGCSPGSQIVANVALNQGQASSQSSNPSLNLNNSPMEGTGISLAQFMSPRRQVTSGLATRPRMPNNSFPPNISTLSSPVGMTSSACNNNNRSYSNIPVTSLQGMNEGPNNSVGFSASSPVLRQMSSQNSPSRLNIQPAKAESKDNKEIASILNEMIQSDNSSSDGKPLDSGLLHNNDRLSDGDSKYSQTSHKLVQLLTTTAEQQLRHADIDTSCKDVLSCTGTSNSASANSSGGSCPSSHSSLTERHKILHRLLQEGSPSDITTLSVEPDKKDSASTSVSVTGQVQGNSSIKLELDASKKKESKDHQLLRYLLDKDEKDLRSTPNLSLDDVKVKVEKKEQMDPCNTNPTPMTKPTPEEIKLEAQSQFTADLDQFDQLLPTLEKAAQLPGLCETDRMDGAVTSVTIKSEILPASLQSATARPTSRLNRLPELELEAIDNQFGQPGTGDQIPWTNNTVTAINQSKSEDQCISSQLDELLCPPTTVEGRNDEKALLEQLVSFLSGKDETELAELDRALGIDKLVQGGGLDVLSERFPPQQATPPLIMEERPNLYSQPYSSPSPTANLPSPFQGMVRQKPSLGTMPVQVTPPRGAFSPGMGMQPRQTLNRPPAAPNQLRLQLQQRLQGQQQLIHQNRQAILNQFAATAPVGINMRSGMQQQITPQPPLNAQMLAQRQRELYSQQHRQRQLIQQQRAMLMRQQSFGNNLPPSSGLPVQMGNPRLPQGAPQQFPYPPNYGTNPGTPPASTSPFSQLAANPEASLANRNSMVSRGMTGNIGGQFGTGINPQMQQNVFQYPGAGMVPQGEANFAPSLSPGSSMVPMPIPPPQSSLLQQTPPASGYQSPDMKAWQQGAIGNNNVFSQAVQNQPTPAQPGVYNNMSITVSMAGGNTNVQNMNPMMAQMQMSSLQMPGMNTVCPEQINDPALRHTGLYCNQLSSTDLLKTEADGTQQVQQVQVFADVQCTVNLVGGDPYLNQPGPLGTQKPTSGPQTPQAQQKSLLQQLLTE

Chain of Glyceraldehyde-3-phosphate dehydrogenase (P04406 whole entry): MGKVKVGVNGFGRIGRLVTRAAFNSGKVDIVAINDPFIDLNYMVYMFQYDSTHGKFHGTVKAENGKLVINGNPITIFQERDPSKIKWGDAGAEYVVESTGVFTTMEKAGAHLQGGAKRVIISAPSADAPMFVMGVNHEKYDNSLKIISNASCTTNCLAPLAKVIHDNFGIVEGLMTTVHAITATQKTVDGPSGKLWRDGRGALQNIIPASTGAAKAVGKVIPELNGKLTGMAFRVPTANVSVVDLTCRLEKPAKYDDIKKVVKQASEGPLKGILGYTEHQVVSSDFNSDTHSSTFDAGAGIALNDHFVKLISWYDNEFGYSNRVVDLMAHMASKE

Compound: CN1CCN(C2=C(Cl)C(=O)N(c3ccc(Cl)cc3Cl)C2=O)CC1
- IC50 [1]: > 100 µM (not active)
- IC50 [2]: 1.36 µM (active)
- IC50 [3]: 2.62 µM (active)

Compound: COc1cccc(N(C(=O)CCl)C(C(=O)NCCc2ccccc2)c2cccs2)c1 (centres undefined)
- AC50 [4]: 2.11 µM (active)
- EC50 [5]: 0.329 µM (active)
- EC50 [6]: 1.48 µM (active)
- CC50 [7]: 0.2 µM (active)
- EC50 [8]: 3.95 µM (active)
- EC50 [9]: 1.59 µM (active)
- IC50 [10]: 0.581 µM (active)

Compound: CCc1ccc(CC2S/C(=C(\C#N)C(C)=O)NC2=O)cc1 (centres undefined)
- CC50 [11]: > 25 µM (active)
- IC50 [12]: 27.9 µM (active)
- IC50 [13]: 13.2 µM (active)

Compound: CC(=O)N1c2ccccc2S(=O)(=O)c2ccccc21
- IC50 [14]: > 20 µM (not active)

Compound: CCOCCOC(=O)c1[nH]c2c(c1C)C(=O)CC(c1ccccc1)C2 (centres undefined)
- EC50 [15]: 0.756 µM (active)
- EC50 [16]: 0.851 µM (inconclusive)
- EC50 [17]: 1.29 µM (active)
- IC50 [18]: 0.521 µM (active)
- EC50 [8]: < 0.104 µM (inconclusive)
- EC50 [19]: 12.6 µM (active)
- IC50 [20]: > 80 µM (inactive)

Compound: CC1CCc2c(sc3nc(SCC(=O)NCc4ccco4)nc(N)c23)C1 (centres undefined)
- EC50 [21]: > 79.4 µM (not active)
- EC50 [22]: > 79.4 µM (not active)
- EC50 [23]: > 79.4 µM (not active)
